The results in this text go back to patent US10519105B2, “KCNQ2-5 channel activator” (ONO PHARMACEUTICAL CO., LTD., priority 2016, dated 2019).

The target of the assay is T1, Human KCNQ2/3 channel (Homo sapiens, UniProt O43525+O43526).
T1 construct: expressed in transfected cells; host or cells: CHO-DHFR- cells
Kind of assay: Opening action with respect to KCNQ2/3 channel by depolarization stimulation (thallium influx, FLIPR). Type of assay: cell-based. As to conditions: concentration giving 50% of the maximum reaction of retigabine (10 μM); human KCNQ2/3 expressing CHO-DHFR- cells; read-out: KCNQ2/3 ECrtg50. On the procedure: Human KCNQ2/3 expression cells (CHO-DHFR− cells) were seeded in each well of a 384-well plate (collagen-coated, black, clear bottom) at 0.5×10^4 cells/50 μL per well and cultured using a MEM ALPHA medium (containing 10 vol % inactivated (56° C., 30 min) fetal bovine serum, 100 IU/mL penicillin, 100 μg/mL streptomycin, and 2 mM L-glutamine) at 37° C. in 5% CO2 for 18 to 24 hours. After the medium in the plate was removed, incubation (room temperature, 60 minutes, shading) was performed in a loading buffer (prepared by the method described in the manual of FluxOR Thallium Detection Kit (Invitrogen, F10016, F10017)). A KCNQ2/3 channel opening action (thallium influx into cells) by depolarization stimulation (5 mM potassium and 0.5 mM thallium) was measured by FLIPR TETRA (Molecular Devices). The compound of the present invention was treated 5 minutes before the depolarization stimulation, and the reaction induced by the depolarization stimulation was measured over time for 180 seconds. The channel opening action of the compound of the present invention was evaluated based on the change amount of the fluorescence intensity from the time before the depolarization stimulation to the time after the elapse of 180 seconds, and the concentration (ECrtg50) satisfying 50% of the fluorescence intensity change of a maximum reaction (in the treatment at 10 μM) of retigabine under the conditions of this experiment was calculated.
`CC1(O)CCc2c1cc(Cl)c(NC(=O)NCc1cccc(C(F)(F)F)c1)c2Cl` (stereo not shown) [Example 3(9), 1-(4,6-dichloro-1-hydroxy-1-methyl-2,3-dihydro-1H-inden-5-yl)-3-[3-(trifluoromethyl)benzyl]urea]: the EC50 was 40 nM.
Turning to `CC1(O)CCc2c1cc(Cl)c(NC(=O)NC(C)(C)c1ccc(F)cc1)c2Cl` (stereo not shown) [Example 3(10), 1-(4,6-dichloro-1-hydroxy-1-methyl-2,3-dihydro-1H-inden-5-yl)-3-[2-(4-fluorophenyl)-2-propanyl]urea], the EC50 turned out to be 300 nM.
On to `CC1(O)CCc2c1cc(Cl)c(NC(=O)NCc1ccc(OC(F)(F)F)cc1F)c2Cl` (stereo not shown) [Example 3(16), 1-(4,6-dichloro-1-hydroxy-1-methyl-2,3-dihydro-1H-inden-5-yl)-3-[2-fluoro-4-(trifluoromethoxy)benzyl]urea], for which the EC50 came out at 30 nM.
On to `CC1(O)CCc2c1cc(Cl)c(NC(=O)NCCOC1CCCCC1)c2Cl` (stereo not shown) [Example 3(24), 1-[2-(cyclohexyloxy)ethyl]-3-(4,6-dichloro-1-hydroxy-1-methyl-2,3-dihydro-1H-inden-5-yl)urea], for which the EC50 amounted to 400 nM.
For `CC1(O)CCc2c1cc(Cl)c(NC(=O)NCC1CC3CCC1C3)c2Cl` (stereo not shown) [Example 3(25), 1-(bicyclo[2.2.1]hept-2-ylmethyl)-3-(4,6-dichloro-1-hydroxy-1-methyl-2,3-dihydro-1H-inden-5-yl)urea], the EC50 is 10 nM.
As for `O=C(NCc1cccc(N2CCCCC2)n1)Nc1c(Cl)cc2c(c1Cl)CCC2(O)C(F)(F)F` (stereo not shown) [Example 12(9), 1-[4,6-dichloro-1-hydroxy-1-(trifluoromethyl)-2,3-dihydro-1H-inden-5-yl]-3-{[6-(1-piperidinyl)-2 pyridinyl]methyl}urea], the EC50 stood at 50 nM.
The value for `O=C(NCc1ccc(-c2ccc(Cl)cc2)o1)Nc1c(Cl)cc2c(c1Cl)CCC2(O)C(F)(F)F` (stereo not shown) [Example 12(16), 1-{[5-(4-chlorophenyl)-2-furyl]methyl}-3-[4,6-dichloro-1-hydroxy-1-(trifluoromethyl)-2,3-dihydro-1H-inden-5-yl]urea] was 10 nM.
Next, `CC1(CNC(=O)Nc2c(Cl)cc3c(c2Cl)CCC3(O)C(F)(F)F)CC1` (stereo not shown) [Example 12(17), 1-[4,6-dichloro-1-hydroxy-1-(trifluoromethyl)-2,3-dihydro-1H-inden-5-yl]-3-[(1-methylcyclopropyl)methyl]urea]: 20 nM; `O=C(NCc1cc2ccccc2[nH]1)Nc1c(Cl)cc2c(c1Cl)CCC2(O)C(F)(F)F` (stereo not shown) [Example 12(21), 1-[4,6-dichloro-1-hydroxy-1-(trifluoromethyl)-2,3-dihydro-1H-inden-5-yl]-3-(1H-indol-2-ylmethyl)urea]: 20 nM; `C[C@@H](NC(=O)Nc1c(Cl)cc2c(c1Cl)CC[C@@]2(O)C(F)(F)F)c1ccc(F)cc1` [Example 22, 1-[(1S)-4,6-dichloro-1-hydroxy-1-(trifluoromethyl)-2,3-dihydro-1H-inden-5-yl]-3-[(1R)-1-(4-fluorophenyl)ethyl]urea]: 1 nM.
